In this assay the test system is intracellular O2- in stationary phase budding yeast cells. The assay can be described thus: High throughput flow cytometry DHE screen for reduction of superoxide in stationary phase budding yeast. The format is cell-based, S. cerevisiae.
Where [1] appears, read: dose response assays from 0.004 uM to 30 uM, 7 day incubation, 7% glucose.

Entries after “also recorded” stand apart in the source; their conditions may differ. Read-outs that look alike come from different tables or passages of the source.

In the case of `Nc1nc[nH]n1` [3-aminotriazol, reference compound], the “decrease in superoxide signals (control compound)” value was “more robust and reproducible decrease in superoxide signals”.
`COc1ccc2c(c1)c1nnc(SC)nc1n2C` [MLS000033501, 8-methoxy-5-methyl-3-methylsulfanyl-[1,2,4]triazino[5,6-b]indole]: the “dose dependency in re-screening (reduction of superoxide, DHE)” value under setting [1] is recorded as “identified by dose dependency; also recorded: exhibited dose dependency”.
Turning to `CC(C)(C)Nc1ncnc2c1cnn2-c1ccccc1` [MLS000100785, N-tert-butyl-1-phenylpyrazolo[3,4-d]pyrimidin-4-amine], the “dose dependency in re-screening (reduction of superoxide, DHE)” value under setting [1] was “identified by dose dependency; also recorded: exhibited dose dependency”.
On to `O=C(/C=C/c1ccccc1)NC(=S)NNC(=O)Cc1cccs1` [MLS000121367, (E)-3-phenyl-N—[[(2-thiophen-2-ylacetyl)amino]carbamothioyl]prop-2-enamide], for which, under setting [1], the “dose dependency in re-screening (reduction of superoxide, DHE)” value is recorded as “identified by dose dependency; also recorded: exhibited dose dependency”.
Still for that read-out and setting: for `CC(C)(C)n1nc(-c2ccc(F)cc2)c2c(N)ncnc21` [MLS000326584, 1-tert-butyl-3-(4-fluorophenyl)pyrazolo[3,4-d]pyrimidin-4-amine] the value was “identified by dose dependency; also recorded: exhibited dose dependency”.
Take `CC(C)(C)n1nc(-c2ccc(Cl)cc2)c2c(N)ncnc21` [MLS000326622, 1-tert-butyl-3-(4-chlorophenyl)pyrazolo[3,4-d]pyrimidin-4-amine]: the “dose dependency in re-screening (reduction of superoxide, DHE)” value was “identified by dose dependency; also recorded: exhibited dose dependency”.
With `O=C(Nc1ccc2nc3ccccc3nc2c1)c1ccccc1` [MLS000418506, N-phenazin-2-ylbenzamide], the “dose dependency in re-screening (reduction of superoxide, DHE)” value under setting [1] was “identified by dose dependency; also recorded: exhibited dose dependency”.
`COc1ccc2c3c(cccc13)N(C)N=C2C` [MLS000554700, 6-Methoxy-1,3-dimethyl-1H-benzo[de]cinnoline]: the “dose dependency in re-screening (reduction of superoxide, DHE)” value under setting [1] is “identified by dose dependency; also recorded: exhibited dose dependency”.
Same read-out and setting: for `c1ccc2nc3ccccc3nc2c1` [MLS000584128, phenazine] the value was “identified by dose dependency; also recorded: exhibited dose dependency”.
Turning to `CCN(CC)C(=O)c1ccc2nc3ccccc3nc2c1` [MLS000595212, N,N-diethylphenazine-2-carboxamide], under setting [1], the “dose dependency in re-screening (reduction of superoxide, DHE)” value is “identified by dose dependency; also recorded: exhibited dose dependency”.
In the case of `C=CCSc1nnc(-c2ccc([N+](=O)[O-])cc2)o1` [MLS000662516, 2-(4-nitrophenyl)-5-prop-2-enylsulfanyl-1,3,4-oxadiazole], the “dose dependency in re-screening (reduction of superoxide, DHE)” value under setting [1] is on record as “identified by dose dependency; also recorded: exhibited dose dependency”.
The same measure, in the same setting: for `C#CCSc1nnc(-c2ccc([N+](=O)[O-])cc2)o1` [MLS000663774, 2-(4-nitrophenyl)-5-prop-2-ynylsulfanyl-1,3,4-oxadiazole] the value was “identified by dose dependency; also recorded: exhibited dose dependency”.
Consider `O=c1cccc2[nH]c3ccccc3nc1-2` [MLS000737174, 5H-phenazin-1-one], for which the “dose dependency in re-screening (reduction of superoxide, DHE)” value is listed as “identified by dose dependency; also recorded: exhibited dose dependency”.
On to `COc1cccc2nc3cc(C)c(C)cc3nc12` [MLS000756830, 1-methoxy-7,8-dimethylphenazine], for which the “dose dependency in re-screening (reduction of superoxide, DHE)” value under setting [1] is “identified by dose dependency; also recorded: exhibited dose dependency”.
For `COc1ccc2nc3ccccc3nc2c1` [MLS000768124, 2-methoxyphenazine], the “dose dependency in re-screening (reduction of superoxide, DHE)” value under setting [1] was “identified by dose dependency; also recorded: exhibited dose dependency”.
On to `OCC[n+]1c2ccccc2nc2ccc(N3CCOCC3)cc21` [MLS000768911, 2-(3-morpholin-4-ylphenazin-5-ium-5-yl)ethanolperchlorate], for which the “dose dependency in re-screening (reduction of superoxide, DHE)” value under setting [1] is “identified by dose dependency; also recorded: exhibited dose dependency”.
As to `CCC(Nc1ccccc1O)=C1C(=O)CC(c2ccccc2)CC1=O` (centres unmarked) [MLS000779260, 2-[1-(2-hydroxyanilino)propylidene]-5-phenylcyclohexane-1,3-dione], the “dose dependency in re-screening (reduction of superoxide, DHE)” value under setting [1] was “identified by dose dependency; also recorded: exhibited dose dependency”.
Turning to `CSc1nnc(-c2ccc([N+](=O)[O-])cc2)o1` [MLS000855890, 2-methylsulfanyl-5-(4-nitrophenyl)-1,3,4-oxadiazole], under setting [1], the “dose dependency in re-screening (reduction of superoxide, DHE)” value is given as “identified by dose dependency; also recorded: exhibited dose dependency”.
On the same count and under the same terms, for `COC(=O)c1cccc2nc3c(C(C)O)cccc3nc12` (centres unmarked) [MLS000863638, methyl 6-(1-hydroxyethyl)phenazine-1-carboxylate] the value was “identified by dose dependency; also recorded: exhibited dose dependency”; for `O=C(c1cccc2nc3ccccc3nc12)N1CCOCC1` [MLS001044337, morpholin-4-yl(phenazin-1-yl)methanone], “identified by dose dependency; also recorded: exhibited dose dependency”.
Turning to `COc1ccc2nc3ccccc3nc2c1N` [MLS001044341, 2-methoxyphenazin-1-amine], the “dose dependency in re-screening (reduction of superoxide, DHE)” value under setting [1] is “identified by dose dependency; also recorded: exhibited dose dependency”.
Regarding `CNC(=O)c1cccc2nc3ccccc3nc12` [MLS001044346, N-methylphenazine-1-carboxamide], under setting [1], the “dose dependency in re-screening (reduction of superoxide, DHE)” value is on record as “identified by dose dependency; also recorded: exhibited dose dependency”.
On the same count and under the same terms, for `CC(=O)Nc1ccc2nc3ccccc3nc2c1` [MLS001044354, N-phenazin-2-ylacetamide] the value was “identified by dose dependency; also recorded: exhibited dose dependency”.
Turning to `Nc1cc2nc3ccccc3nc2cc1N` [MLS001044416, phenazine-2,3-diamine], the “dose dependency in re-screening (reduction of superoxide, DHE)” value was “identified by dose dependency; also recorded: exhibited dose dependency”.
On to `COc1ccc2nc3ccccc3nc2c1` [MLS001048992, 2-methoxyphenazine], for which the “dose dependency in re-screening (reduction of superoxide, DHE)” value under setting [1] was “identified by dose dependency; also recorded: exhibited dose dependency”.
As to `FC(F)(F)c1nc2cc3nc4ccccc4nc3cc2[nH]1` [MLS001049309, 2-(trifluoromethyl)-1H-imidazo[4,5-b]phenazine], the “dose dependency in re-screening (reduction of superoxide, DHE)” value under setting [1] is “identified by dose dependency; also recorded: exhibited dose dependency”.
For the molecule `CNc1ccc2nc3ccccc3[n+](C)c2c1.[O-][Cl+3]([O-])([O-])[O-]` [MLS001164912, N,10-dimethylphenazin-10-ium-2-amine perchlorate], the “dose dependency in re-screening (reduction of superoxide, DHE)” value is “identified by dose dependency; also recorded: exhibited dose dependency”.
On to `CC(C)OC(=O)c1ccc2nc3ccccc3nc2c1` [MLS001173415, propan-2-yl phenazine-2-carboxylate], for which the “dose dependency in re-screening (reduction of superoxide, DHE)” value under setting [1] is “identified by dose dependency; also recorded: exhibited dose dependency”.
Turning to `CC(=NNc1ncnc2sc(C)c(C)c12)c1ccccn1` [MLS001176565, 5,6-dimethyl-N-(1-pyridin-2-ylethylideneamino)thieno[2,3-d]pyrimidin-4-amine], the “dose dependency in re-screening (reduction of superoxide, DHE)” value under setting [1] is “identified by dose dependency; also recorded: exhibited dose dependency”.
In the case of `O=c1ccc2[n+]([O-])c3ccccc3n(O)c-2c1` [MLS001208198, 10-hydroxy-5-oxidophenazin-5-ium-2-one], the “dose dependency in re-screening (reduction of superoxide, DHE)” value under setting [1] was “identified by dose dependency; also recorded: exhibited dose dependency”.
Consider `C=C1[C@@H](O)[C@@H]2O[C@]3(CC[C@H](/C=C/[C@@H](C)[C@@H]4CC(C)=C[C@@]5(O[C@H](C[C@@](C)(O)C(=O)O)CC[C@H]5O)O4)O3)CC[C@H]2O[C@@H]1[C@@H](O)C[C@H](C)[C@H]1O[C@@]2(CCCCO2)CC[C@H]1C` [MLS002320508, (2R)-3-[(4S,10S)-4-[(E)-4-[(2S,2′R,4aS,6R,8aR)-4-hydroxy-2-[1-hydroxy-3-[(10S)-9-methyl-5,11-dioxaspiro[5.5]undecan-10-yl]butyl]-3-methylidenespiro[4a,7,8,8a-tetrahydro-4H-pyran[3,2-b]pyran-6,5′-oxolane]-2′-yl]but-3-en-2-yl]-7-hydroxy-2-methyl-5,11-dioxaspiro[5.5]undec-1-en-10-yl]-2-hydroxy-2-methylpropanoic acid], for which the “dose dependency in re-screening (reduction of superoxide, DHE)” value was “identified by dose dependency; also recorded: exhibited dose dependency”.
Take `C[C@]12CCC3C(CC[C@H]4C[C@@H](O)CC[C@]34C)[C@H]1CC[C@H]2O` (stereo partly drawn) [MLS002554375, (3S,5S,10S,13S,14R,17R)-10,13-dimethyl-2,3,4,5,6,7,8,9,11,12,14,15,16,17-tetradecahydro-1H-cyclopenta[a]phenanthrene-3,17-diol]: the “dose dependency in re-screening (reduction of superoxide, DHE)” value was “identified by dose dependency; also recorded: exhibited dose dependency”.
On to `C[C@]12CCC3C(CC[C@H]4C[C@H](O)CC[C@]34C)C1C[C@@H](CCCCl)[C@@H]2O` (stereo partly drawn) [MLS002554453, (3R,5S,10S,13S,16R,17S)-16-(3-chloropropyl)-10,13-dimethyl-2,3,4,5,6,7,8,9,11,12,14,15,16,17-tetradecahydro-1H-cyclopenta[a]phenanthrene-3,17-diol], for which, under setting [1], the “dose dependency in re-screening (reduction of superoxide, DHE)” value is “identified by dose dependency; also recorded: exhibited dose dependency”.
For `C[C@]12CCC3C(CC[C@H]4C[C@H](O)CC[C@]34C)C1CCC2=O` (stereo partly drawn) [MLS002554454, (3R,5S,10S,13S)-3-hydroxy-10,13-dimethyl-1,2,3,4,5,6,7,8,9,11,12,14,15,16-tetradecahydrocyclopenta[a]phenanthren-17-one], the “dose dependency in re-screening (reduction of superoxide, DHE)” value is on record as “identified by dose dependency; also recorded: exhibited dose dependency”.
Turning to `COc1ccc2nc3ccccc3[n+]([O-])c2c1` [MLS002638803, 2-methoxy-10-oxidophenazin-10-ium], the “dose dependency in re-screening (reduction of superoxide, DHE)” value under setting [1] is recorded as “identified by dose dependency; also recorded: exhibited dose dependency”.

These data come from US9034857B2 (Health Research, Inc., priority 2010, dated 2015).
